Measured values published in patent publication US6004960A, “Pyridazinones as inhibitors of cyclooxygenase-2” (Merck Frosst Canada, Inc., priority 1998, dated 1999).

Key:
[1] = molecular target: T1, COX-1 (Homo sapiens, UniProt P23219); experiment: Human whole blood assay, COX-1 (clotting-induced TxB2 production); assay type: cell-based; design: platelets in whole blood contain a large amount of the COX-1 enzyme; from tissue; host or cells: fresh human whole blood (platelets), allowed to clot; conditions: clotting-induced TxB2, 1 hour at 37° C, read-out: COX-1 (IC50 μM) HWB
Protocol: Human whole blood provides a protein and cell-rich milieu appropriate for the study of biochemical efficacy of anti-inflammatory compounds such as selective COX-2 inhibitors. […] This is consistent with the observation that COX-2 inhibitors have no effect on PGE2 production in normal blood. These inhibitors are active only after incubation of human whole blood with LPS, which induces COX-2. This assay can be used to evaluate the inhibitory effect of selective COX-2 inhibitors on PGE2 production. As well, platelets in whole blood contain a large amount of the COX-1 enzyme. Immediately following blood clotting, platelets are activated through a thrombin-mediated mechanism. This reaction results in the production of thromboxane B2 (TxB2) via activation of COX-1. Thus, the effect of test compounds on TxB2 levels following blood clotting can be examined and used as an index for COX-1 activity. Therefore, the degree of selectivity by the test compound can be determined by measuring the levels of PGE2 after LPS induction (COX-2) and […] following blood clotting (COX-1) in the same assay.
B. COX-1 (Clotting-induced TxB2 production)
Fresh blood is collected into vacutainers containing no anticoagulants. […] The tubes are vortexed and incubated at 37° C. for 1 hour to allow blood to clot. At the end of incubation, serum is obtained by centrifugation (12,000×g for 5 min.). A 100 μL aliquot of serum is mixed with 400 μL of methanol for protein precipitation. The supernatant is obtained and is assayed for T×B2 using a enzyme immunoassay kit (Cayman, #519031) according to the manufacturer's instruction.

[2] = molecular target: T1, COX-1; experiment: Assay of COX-1 activity from U937 cell microsomes; assay type: biochemical; design: Assay of COX-1 Activity from U937 cell microsomes; endogenous in cells; host or cells: U937 cells, 100,000×g microsomal pellet; conditions: PGE2, read-out: COX-1 (IC50 μM) U-937
Protocol: Assay of COX-1 Activity from U937 cell microsomes
U 937 cells are pelleted by centrifugation at 500×g for 5 min and washed once with phosphate-buffered saline and repelleted. […] The cell suspension is sonicated 4 times for 10 sec and is centrifuged at 10,000×g for 10 min at 4° C. The supernatant is centrifuged at 100,000×g for 1 hr at 4° C. The 100,000×g microsomal pellet is resuspended in 0.1 M Tris-HCl, pH 7.4, 10 mM EDTA to approximately 7 mg protein/ml and stored at -80° C.
Microsomal preparations are thawed immediately prior to use, subjected to a brief sonication, and then diluted to a protein concentration of 125 μg/ml in 0.1 M Tris-HCl buffer, pH 7.4 containing 10 mM EDTA, 0.5 mM phenol, 1 mM reduced glutathione and 1 μM hematin. Assays are performed in duplicate in a final volume of 250 pl. Initially, 5 µl of DMSO vehicle or drug in DMSO are added to 20 μl of 0.1 M Tris-HCl buffer, pH 7.4 containing 10 mM EDTA in wells of a 96-deepwell polypropylene titre plate. 200 μl of the microsomal preparation are then added and pre-incubated for 15 min at room temperature before addition of 25 μl of […] in 0.1 M Tris-HCl and 10 mM EDTA, pH 7.4. Samples are incubated for 40 min at room temperature and the reaction is stopped by the addition of 25 pl of 1 N HCl. Samples are neutralized with 25 μl of 1 N NaOH prior to quantitation of PGE2 content by radioimmunoassay (Dupont-NEN or Amersham assay kits). Cyclooxygenase activity is defined as the difference between PGE2 levels in samples incubated in the presence of arachidonic acid and ethanol vehicle.
In the assay, inhibition is determined by measuring the amount of prostaglandin E2 (PGE2) synthesized in the presence of arachidonic acid, cyclooxygenase-I or cyclooxygenase-2 and a putative inhibitor.

T1 sequence (P23219 24-599): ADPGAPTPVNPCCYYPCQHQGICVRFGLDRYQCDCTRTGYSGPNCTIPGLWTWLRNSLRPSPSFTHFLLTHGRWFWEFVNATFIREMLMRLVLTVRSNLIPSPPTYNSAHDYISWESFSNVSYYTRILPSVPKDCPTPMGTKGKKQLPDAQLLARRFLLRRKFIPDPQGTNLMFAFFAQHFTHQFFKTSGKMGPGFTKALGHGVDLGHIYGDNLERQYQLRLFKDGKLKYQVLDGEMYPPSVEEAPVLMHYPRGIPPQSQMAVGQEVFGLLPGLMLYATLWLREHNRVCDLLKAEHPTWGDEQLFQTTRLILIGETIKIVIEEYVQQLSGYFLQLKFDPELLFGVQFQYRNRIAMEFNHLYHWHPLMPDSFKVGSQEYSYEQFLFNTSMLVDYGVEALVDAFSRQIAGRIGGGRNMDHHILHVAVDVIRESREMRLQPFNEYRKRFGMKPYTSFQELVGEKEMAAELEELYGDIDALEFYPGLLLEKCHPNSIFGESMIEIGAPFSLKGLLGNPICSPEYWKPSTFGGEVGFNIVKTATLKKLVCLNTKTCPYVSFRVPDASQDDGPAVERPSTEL

IC50 [1]: 56 µM
IC50 [2]: > 10 µM
SMILES: CS(=O)(=O)c1ccc(-c2cnn(Cc3ccccc3)c(=O)c2-c2cccnc2)cc1 [Example 28, 2-Benzyl-5-(4-methylsulfonyl)phenyl-4-(3-pyridyl)-2H-pyridazin-3-one]
